This note sets out measurements from publication PMC9856672, “SGC-CAMKK2-1: A Chemical Probe for CAMKK2” (Cells, 2023).

For experiment [1], the target named is T1, LYN (Homo sapiens, UniProt P07948).
T1 construct: purchased Eurofins DiscoverX KINOMEscan
As to the kind of experiment: KINOMEscan 1 μM, LYN. The experiment is classed as binding. To be noted: 1000 nM; Entrez LYN; read-out: Percent Control. The source says: (§1) Supplement cells-12-00287-s001.zip/File S2. KinomeScan data for the CAMKK2 probe and negative control.xlsx, sheet "SGC-CAMKK2-1" | column: Percent Control

In experiment [2] the target is T2, DLK (Homo sapiens, UniProt Q12852).
T2 construct: purchased Eurofins DiscoverX KINOMEscan
As to the kind of experiment: KINOMEscan 1 μM, DLK. The experiment is classed as binding. To be noted: 1000 nM; Entrez MAP3K12; read-out: Percent Control.
Source text: as §1

Experiment [3] addresses T3, YSK4 (Homo sapiens, UniProt Q56UN5).
T3 construct: purchased Eurofins DiscoverX KINOMEscan
In words: KINOMEscan 1 μM, YSK4. Format: binding. To be noted: 1000 nM; Entrez MAP3K19; read-out: Percent Control.
Source text: as §1

Experiment [4] has as its target T4, MEK1 (Homo sapiens, UniProt Q02750).
T4 construct: purchased Eurofins DiscoverX KINOMEscan
In words: KINOMEscan 1 μM, MEK1. Format: binding. To be noted: 1000 nM; Entrez MAP2K1; read-out: Percent Control.
Source text: as §1

Experiment [5] has as its target T5, GRK7 (Homo sapiens, UniProt Q8WTQ7).
T5 construct: purchased Eurofins DiscoverX KINOMEscan
As to the kind of experiment: KINOMEscan 1 μM, GRK7. Format: binding. The following applies: 1000 nM; Entrez GRK7; read-out: Percent Control.
Source text: as §1

In experiment [6] the target is T6, STK35 (Homo sapiens, UniProt Q8TDR2).
T6 construct: purchased Eurofins DiscoverX KINOMEscan
As to the kind of experiment: KINOMEscan 1 μM, STK35. The experiment is classed as binding. To be noted: 1000 nM; Entrez STK35; read-out: Percent Control.
Source text: as §1

Experiment [7] addresses T7, SRPK1 (Homo sapiens, UniProt Q96SB4).
T7 construct: purchased Eurofins DiscoverX KINOMEscan
As to the kind of experiment: KINOMEscan 1 μM, SRPK1. The following applies: 1000 nM; Entrez SRPK1; read-out: Percent Control. The experiment is classed as binding.
Source text: as §1

Experiment [8] has as its target T8, MAP3K1 (Homo sapiens, UniProt Q13233).
T8 construct: purchased Eurofins DiscoverX KINOMEscan
In words: KINOMEscan 1 μM, MAP3K1. The experiment is classed as binding. The following applies: 1000 nM; Entrez MAP3K1; read-out: Percent Control.
Source text: as §1

Experiment [9] concerns the target T9, GAK (Homo sapiens, UniProt O14976).
T9 construct: purchased Eurofins DiscoverX KINOMEscan
In words: KINOMEscan 1 μM, GAK. The following applies: 1000 nM; Entrez GAK; read-out: Percent Control. The experiment is classed as binding.
Source text: as §1

Experiment [10] deals with T10, FLT3-autoinhibited (Homo sapiens, UniProt P36888).
T10 construct: purchased Eurofins DiscoverX KINOMEscan
As to the kind of experiment: KINOMEscan 1 μM, FLT3-autoinhibited. Format: binding. To be noted: 1000 nM; Entrez FLT3; read-out: Percent Control.
Source text: as §1

Experiment [11] deals with T11, EPHA5 (Homo sapiens, UniProt P54756).
T11 construct: purchased Eurofins DiscoverX KINOMEscan
In words: KINOMEscan 1 μM, EPHA5. The experiment is classed as binding. To be noted: 1000 nM; Entrez EPHA5; read-out: Percent Control.
Source text: as §1

In experiment [12] the target is T12, SRPK2 (Homo sapiens, UniProt P78362).
T12 construct: purchased Eurofins DiscoverX KINOMEscan
In words: DiscoverX KINOMEscan binding assay at 1 μM, SRPK2. The following applies: Compound Concentration 1000 nM, read-out: Percent Control.
Source text: as §1

Experiment [13] has as its target T13, CSK (Homo sapiens, UniProt P41240).
T13 construct: purchased Eurofins DiscoverX KINOMEscan
In words: KINOMEscan 1 μM, CSK. Format: binding. To be noted: 1000 nM; Entrez CSK; read-out: Percent Control.
Source text: as §1

The target in experiment [14] is T14, CDK11 (Homo sapiens, UniProt Q9BWU1).
T14 construct: purchased Eurofins DiscoverX KINOMEscan
As to the kind of experiment: KINOMEscan 1 μM, CDK11. Format: binding. The following applies: 1000 nM; Entrez CDK19; read-out: Percent Control.
Source text: as §1

The target in experiment [15] is T15, MAP3K4 (Homo sapiens, UniProt Q9Y6R4).
T15 construct: purchased Eurofins DiscoverX KINOMEscan
In words: KINOMEscan 1 μM, MAP3K4. The experiment is classed as binding. The following applies: 1000 nM; Entrez MAP3K4; read-out: Percent Control.
Source text: as §1

The target in experiment [16] is T16, TGFBR2 (Homo sapiens, UniProt P37173).
T16 construct: purchased Eurofins DiscoverX KINOMEscan
As to the kind of experiment: KINOMEscan 1 μM, TGFBR2. The experiment is classed as binding. The following applies: 1000 nM; Entrez TGFBR2; read-out: Percent Control.
Source text: as §1

Experiment [17] has as its target T17, GRK4 (Homo sapiens, UniProt P32298).
T17 construct: purchased Eurofins DiscoverX KINOMEscan
In words: KINOMEscan binding assay at 1 μM, GRK4. The following applies: Compound Concentration 1000 nM; read-out: Percent Control. The source says: (§2) Supplement cells-12-00287-s001.zip/File S2. KinomeScan data for the CAMKK2 probe and negative control.xlsx, sheet "SGC-CAMKK2-1N" | column: Percent Control

For experiment [18], the target named is T18, NEK2 (Homo sapiens, UniProt P51955).
T18 construct: purchased Eurofins DiscoverX KINOMEscan
As to the kind of experiment: KINOMEscan at 1 μM, NEK2. The experiment is classed as binding. The following applies: 1000 nM, read-out: Percent Control.
Source text: as §2

Experiment [19] deals with T19, KIT(A829P) (Homo sapiens, UniProt P10721, A829P).
T19 construct: purchased Eurofins DiscoverX KINOMEscan
In words: KINOMEscan at 1 μM, KIT(A829P). The following applies: 1000 nM, read-out: Percent Control. The experiment is classed as binding.
Source text: as §2

For experiment [20], the target named is T20, PAK7 (Homo sapiens, UniProt Q9P286).
T20 construct: purchased Eurofins DiscoverX KINOMEscan
In words: KINOMEscan at 1 μM, PAK7. The following applies: 1000 nM, read-out: Percent Control. Format: binding.
Source text: as §2

For experiment [21], the target named is T21, PHKG2 (Homo sapiens, UniProt P15735).
T21 construct: purchased Eurofins DiscoverX KINOMEscan
As to the kind of experiment: KINOMEscan at 1 μM, PHKG2. The experiment is classed as binding. The following applies: 1000 nM, read-out: Percent Control.
Source text: as §2

Experiment [22] concerns the target T22, PIM3 (Homo sapiens, UniProt Q86V86).
T22 construct: purchased Eurofins DiscoverX KINOMEscan
As to the kind of experiment: KINOMEscan at 1 μM, PIM3. Format: binding. To be noted: 1000 nM, read-out: Percent Control.
Source text: as §2

Experiment [23] has as its target T23, CHEK1 (Homo sapiens, UniProt O14757).
T23 construct: purchased Eurofins DiscoverX KINOMEscan
As to the kind of experiment: KINOMEscan at 1 μM, CHEK1. Format: binding. The following applies: 1000 nM, read-out: Percent Control.
Source text: as §2

Experiment [24] addresses T24, CSNK1A1 (Homo sapiens, UniProt P48729).
T24 construct: purchased Eurofins DiscoverX KINOMEscan
As to the kind of experiment: KINOMEscan at 1 μM, CSNK1A1. Format: binding. To be noted: 1000 nM, read-out: Percent Control.
Source text: as §2

Experiment [25] has as its target T25, ERK1 (Homo sapiens, UniProt P27361).
T25 construct: purchased Eurofins DiscoverX KINOMEscan
In words: KINOMEscan at 1 μM, ERK1. To be noted: 1000 nM, read-out: Percent Control. The experiment is classed as binding.
Source text: as §2

For experiment [26], the target named is T26, PKNB(M.tuberculosis) (Mycobacterium tuberculosis, UniProt P9WI81).
T26 construct: purchased Eurofins DiscoverX KINOMEscan
In words: KINOMEscan at 1 μM, PKNB(M.tuberculosis). The experiment is classed as binding. The following applies: 1000 nM, read-out: Percent Control.
Source text: as §2

Experiment [27] concerns the target T27, LIMK2 (Homo sapiens, UniProt P53671).
T27 construct: purchased Eurofins DiscoverX KINOMEscan
As to the kind of experiment: KINOMEscan at 1 μM, LIMK2. The experiment is classed as binding. The following applies: 1000 nM, read-out: Percent Control.
Source text: as §2

The subject of experiment [28] is FLT3(ITD,F691L). As to the kind of experiment: KINOMEscan at 1 μM, FLT3(ITD,F691L). Format: binding, human. To be noted: 1000 nM.
Source text: as §2

Experiment [29] addresses T28, CIT (Homo sapiens, UniProt O14578).
T28 construct: purchased Eurofins DiscoverX KINOMEscan
As to the kind of experiment: KINOMEscan at 1 μM, CIT. The experiment is classed as binding. To be noted: 1000 nM, read-out: Percent Control.
Source text: as §2

The target of experiment [30] is T29, PAK1 (Homo sapiens, UniProt Q13153).
T29 construct: purchased Eurofins DiscoverX KINOMEscan
In words: KINOMEscan at 1 μM, PAK1. The following applies: 1000 nM, read-out: Percent Control. Format: binding.
Source text: as §2

The target in experiment [31] is T30, CSNK1E (Homo sapiens, UniProt P49674).
T30 construct: purchased Eurofins DiscoverX KINOMEscan
As to the kind of experiment: KINOMEscan at 1 μM, CSNK1E. To be noted: 1000 nM, read-out: Percent Control. The experiment is classed as binding.
Source text: as §2

Experiment [32] has as its target T31, BTK (Homo sapiens, UniProt Q06187).
T31 construct: purchased Eurofins DiscoverX KINOMEscan
As to the kind of experiment: KINOMEscan at 1 μM, BTK. The experiment is classed as binding. The following applies: 1000 nM, read-out: Percent Control.
Source text: as §2

For experiment [33], the target named is T32, INSR (Homo sapiens, UniProt P06213).
T32 construct: purchased Eurofins DiscoverX KINOMEscan
In words: KINOMEscan at 1 μM, INSR. The experiment is classed as binding. The following applies: 1000 nM, read-out: Percent Control.
Source text: as §2

In experiment [34] the target is T33, PRP4 (Homo sapiens, UniProt Q13523).
T33 construct: purchased Eurofins DiscoverX KINOMEscan
In words: KINOMEscan binding assay at 1 μM, PRP4. The following applies: Compound Concentration 1000 nM; read-out: Percent Control.
Source text: as §2

T1 sequence (P07948 whole entry): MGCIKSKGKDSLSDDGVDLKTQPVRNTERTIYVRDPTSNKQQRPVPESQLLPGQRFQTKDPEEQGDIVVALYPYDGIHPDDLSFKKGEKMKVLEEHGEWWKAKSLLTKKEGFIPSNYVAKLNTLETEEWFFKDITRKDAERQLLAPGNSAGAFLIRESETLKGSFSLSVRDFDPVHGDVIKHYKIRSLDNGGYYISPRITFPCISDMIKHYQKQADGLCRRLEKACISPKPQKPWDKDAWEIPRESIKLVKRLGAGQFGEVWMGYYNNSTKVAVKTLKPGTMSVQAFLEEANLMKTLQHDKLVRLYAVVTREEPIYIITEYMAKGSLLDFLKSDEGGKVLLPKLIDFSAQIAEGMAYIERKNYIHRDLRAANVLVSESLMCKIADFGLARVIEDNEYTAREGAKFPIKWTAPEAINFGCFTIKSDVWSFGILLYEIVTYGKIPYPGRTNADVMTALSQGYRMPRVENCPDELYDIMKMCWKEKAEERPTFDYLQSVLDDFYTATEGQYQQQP
T30 sequence (P49674 whole entry): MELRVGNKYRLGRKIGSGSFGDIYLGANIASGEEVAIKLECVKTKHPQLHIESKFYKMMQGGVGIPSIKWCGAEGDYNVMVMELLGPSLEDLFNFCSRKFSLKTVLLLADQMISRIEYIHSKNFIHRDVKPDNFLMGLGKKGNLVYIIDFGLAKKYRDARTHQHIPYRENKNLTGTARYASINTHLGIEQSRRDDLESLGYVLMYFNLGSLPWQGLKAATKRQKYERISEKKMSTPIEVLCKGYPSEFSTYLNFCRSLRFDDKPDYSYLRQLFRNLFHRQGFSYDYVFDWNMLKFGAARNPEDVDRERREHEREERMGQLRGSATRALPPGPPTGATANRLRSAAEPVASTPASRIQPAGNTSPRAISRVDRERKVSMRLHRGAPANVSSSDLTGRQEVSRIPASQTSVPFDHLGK
T33 sequence (Q13523 whole entry): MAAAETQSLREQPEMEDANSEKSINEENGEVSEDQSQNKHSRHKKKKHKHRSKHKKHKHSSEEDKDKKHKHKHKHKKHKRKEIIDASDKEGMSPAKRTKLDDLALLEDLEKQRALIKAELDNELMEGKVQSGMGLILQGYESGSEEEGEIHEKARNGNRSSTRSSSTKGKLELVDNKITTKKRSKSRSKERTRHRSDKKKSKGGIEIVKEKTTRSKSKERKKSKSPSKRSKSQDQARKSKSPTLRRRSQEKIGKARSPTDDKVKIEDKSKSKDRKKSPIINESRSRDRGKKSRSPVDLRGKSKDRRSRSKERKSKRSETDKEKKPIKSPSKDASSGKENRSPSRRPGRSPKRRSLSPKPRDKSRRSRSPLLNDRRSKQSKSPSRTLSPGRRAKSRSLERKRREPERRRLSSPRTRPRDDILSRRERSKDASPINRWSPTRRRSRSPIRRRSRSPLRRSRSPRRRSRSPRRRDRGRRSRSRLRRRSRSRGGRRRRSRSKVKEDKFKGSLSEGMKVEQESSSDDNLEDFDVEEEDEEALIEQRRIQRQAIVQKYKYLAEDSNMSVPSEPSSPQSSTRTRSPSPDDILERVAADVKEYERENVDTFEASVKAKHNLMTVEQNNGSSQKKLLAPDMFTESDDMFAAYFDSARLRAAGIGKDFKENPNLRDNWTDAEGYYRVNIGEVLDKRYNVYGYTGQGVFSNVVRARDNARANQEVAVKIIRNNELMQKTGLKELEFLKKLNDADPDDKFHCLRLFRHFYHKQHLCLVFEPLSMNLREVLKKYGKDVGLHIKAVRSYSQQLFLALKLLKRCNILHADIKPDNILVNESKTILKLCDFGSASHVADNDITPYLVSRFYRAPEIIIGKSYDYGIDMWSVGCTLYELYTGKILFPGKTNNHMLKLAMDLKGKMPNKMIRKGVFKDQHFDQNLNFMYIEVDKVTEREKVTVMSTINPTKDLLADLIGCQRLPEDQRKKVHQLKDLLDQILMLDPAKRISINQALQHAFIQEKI
T13 sequence (P41240 whole entry): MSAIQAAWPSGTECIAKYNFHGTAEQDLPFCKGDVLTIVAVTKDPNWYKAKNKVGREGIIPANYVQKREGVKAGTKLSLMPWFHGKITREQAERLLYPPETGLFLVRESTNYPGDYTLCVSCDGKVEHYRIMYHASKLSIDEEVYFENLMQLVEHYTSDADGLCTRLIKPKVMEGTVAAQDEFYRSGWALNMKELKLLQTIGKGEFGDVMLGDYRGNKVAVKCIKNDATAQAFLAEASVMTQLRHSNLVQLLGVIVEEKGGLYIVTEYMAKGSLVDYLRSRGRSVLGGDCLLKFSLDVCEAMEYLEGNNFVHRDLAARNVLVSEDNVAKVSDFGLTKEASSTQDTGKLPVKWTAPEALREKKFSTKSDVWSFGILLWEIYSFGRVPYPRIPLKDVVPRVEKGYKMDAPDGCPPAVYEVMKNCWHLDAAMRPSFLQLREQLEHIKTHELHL
T9 sequence (O14976 whole entry): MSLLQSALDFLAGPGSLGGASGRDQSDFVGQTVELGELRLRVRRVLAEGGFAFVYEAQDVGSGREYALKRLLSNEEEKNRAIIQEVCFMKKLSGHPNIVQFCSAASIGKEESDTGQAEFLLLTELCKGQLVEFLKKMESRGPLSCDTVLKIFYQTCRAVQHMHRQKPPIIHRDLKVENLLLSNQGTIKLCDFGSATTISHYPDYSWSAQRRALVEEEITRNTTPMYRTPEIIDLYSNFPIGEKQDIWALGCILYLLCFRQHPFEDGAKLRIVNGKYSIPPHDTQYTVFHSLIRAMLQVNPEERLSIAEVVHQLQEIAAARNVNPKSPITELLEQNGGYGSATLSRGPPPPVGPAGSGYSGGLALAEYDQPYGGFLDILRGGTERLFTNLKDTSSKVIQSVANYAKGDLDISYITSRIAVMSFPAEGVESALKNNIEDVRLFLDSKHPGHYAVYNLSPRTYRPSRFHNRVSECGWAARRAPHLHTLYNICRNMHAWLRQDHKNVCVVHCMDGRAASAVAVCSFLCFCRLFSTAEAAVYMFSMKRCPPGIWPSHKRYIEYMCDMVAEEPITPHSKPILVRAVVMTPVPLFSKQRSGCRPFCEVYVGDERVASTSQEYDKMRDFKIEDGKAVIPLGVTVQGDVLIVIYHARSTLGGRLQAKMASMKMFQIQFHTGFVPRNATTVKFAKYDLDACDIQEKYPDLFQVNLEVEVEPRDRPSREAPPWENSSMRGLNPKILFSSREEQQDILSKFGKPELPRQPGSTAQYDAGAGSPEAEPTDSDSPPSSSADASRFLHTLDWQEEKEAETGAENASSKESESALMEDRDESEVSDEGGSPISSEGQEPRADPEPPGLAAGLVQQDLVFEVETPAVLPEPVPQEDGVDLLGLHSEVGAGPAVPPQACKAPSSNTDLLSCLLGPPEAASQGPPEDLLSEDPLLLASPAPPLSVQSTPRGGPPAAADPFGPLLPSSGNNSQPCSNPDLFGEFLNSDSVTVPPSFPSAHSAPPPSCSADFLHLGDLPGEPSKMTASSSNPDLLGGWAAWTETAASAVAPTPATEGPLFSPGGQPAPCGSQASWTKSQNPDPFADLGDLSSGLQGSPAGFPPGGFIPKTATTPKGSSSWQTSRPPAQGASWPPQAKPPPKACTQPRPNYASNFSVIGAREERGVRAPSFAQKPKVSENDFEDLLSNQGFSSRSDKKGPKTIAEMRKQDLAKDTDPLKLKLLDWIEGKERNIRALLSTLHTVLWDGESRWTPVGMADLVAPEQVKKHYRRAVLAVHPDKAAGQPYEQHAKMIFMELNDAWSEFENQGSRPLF
T19 sequence (P10721 26-976 A829P): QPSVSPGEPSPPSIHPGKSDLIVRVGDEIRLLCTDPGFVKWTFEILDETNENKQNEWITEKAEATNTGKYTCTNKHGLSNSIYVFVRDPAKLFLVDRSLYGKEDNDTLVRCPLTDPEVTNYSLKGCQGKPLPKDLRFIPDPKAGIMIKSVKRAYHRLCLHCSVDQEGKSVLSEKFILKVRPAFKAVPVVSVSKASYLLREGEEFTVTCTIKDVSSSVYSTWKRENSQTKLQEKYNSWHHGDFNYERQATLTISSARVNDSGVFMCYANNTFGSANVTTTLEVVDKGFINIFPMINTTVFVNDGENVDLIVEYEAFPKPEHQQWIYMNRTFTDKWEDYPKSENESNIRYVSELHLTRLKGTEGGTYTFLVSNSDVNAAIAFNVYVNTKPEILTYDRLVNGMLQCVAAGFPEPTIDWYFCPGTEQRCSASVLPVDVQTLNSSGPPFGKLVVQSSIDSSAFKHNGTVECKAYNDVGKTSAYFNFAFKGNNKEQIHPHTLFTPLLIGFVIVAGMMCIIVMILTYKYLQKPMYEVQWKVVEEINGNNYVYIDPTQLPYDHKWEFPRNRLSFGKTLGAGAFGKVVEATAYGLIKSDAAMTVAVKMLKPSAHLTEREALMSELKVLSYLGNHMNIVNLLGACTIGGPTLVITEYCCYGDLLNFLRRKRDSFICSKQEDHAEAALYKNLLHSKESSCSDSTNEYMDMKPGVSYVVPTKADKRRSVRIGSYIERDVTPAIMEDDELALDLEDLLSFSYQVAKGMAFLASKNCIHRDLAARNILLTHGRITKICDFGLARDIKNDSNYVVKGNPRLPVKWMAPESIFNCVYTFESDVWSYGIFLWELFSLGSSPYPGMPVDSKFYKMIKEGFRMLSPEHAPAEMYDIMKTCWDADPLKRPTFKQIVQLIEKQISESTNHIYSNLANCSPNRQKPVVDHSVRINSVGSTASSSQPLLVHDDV
T4 sequence (Q02750 whole entry): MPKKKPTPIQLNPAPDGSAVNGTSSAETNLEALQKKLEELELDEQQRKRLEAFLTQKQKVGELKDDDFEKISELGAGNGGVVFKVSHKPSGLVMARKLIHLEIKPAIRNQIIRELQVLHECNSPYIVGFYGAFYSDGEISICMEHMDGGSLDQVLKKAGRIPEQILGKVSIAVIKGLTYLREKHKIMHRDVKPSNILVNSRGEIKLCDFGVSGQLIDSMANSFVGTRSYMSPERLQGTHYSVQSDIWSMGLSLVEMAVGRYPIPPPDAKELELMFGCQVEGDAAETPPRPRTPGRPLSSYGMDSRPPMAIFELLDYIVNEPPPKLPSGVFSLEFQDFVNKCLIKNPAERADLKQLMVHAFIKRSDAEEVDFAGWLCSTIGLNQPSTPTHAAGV

With `Cc1cccc(-c2cnc3occ(-c4ccc(C(=O)O)c(C5CCCC5)c4)c3c2)c1` [SGC-CAMKK2-1 (YL-36)], the remaining binding at 1 µM turned out to be 100% in [1]; 100% in experiment [2]; 85% in experiment [3]; 100% in experiment [4]; 94% in experiment [5]; 73% in experiment [6]. Also, the remaining binding at 1 µM turned out to be 80% in experiment [7]; 100% in experiment [8]; 80% in experiment [9]; 100% in experiment [10]; 100% in experiment [11]; 100% in [12]. Further, the remaining binding at 1 µM in experiment [13] was determined as 99%; in [14], 98%; in experiment [15] it was 100%; in [16], 91%.
As for `O=C(O)c1ccc(-c2coc3ncc(-c4ccccc4)cc23)cc1Cl` [SGC-CAMKK2-1N (UNC-YL-83)], the remaining binding at 1 µM worked out at 100% in [17]; 97% in experiment [18]; 86% in experiment [19]; 84% in experiment [20]; 68% in experiment [21]; 66% in [22]. Further, the remaining binding at 1 µM in experiment [23] was 91%; in experiment [24], 44%; in experiment [25], 95%; in [26] it was 83%; in experiment [27], 92%; in [29] it was 87%. The remaining binding at 1 µM came to 42% in experiment [30]; 92% in experiment [31]; 60% in experiment [32]; 93% in experiment [33]; 100% in [34]. In experiment [28], the “Percent Control” value is on record as 81.
